Results reported in PubChem BioAssay AID1259246 (Broad Institute, 2017).
Where “and” joins values, the source holds several entries; their conditions need not be identical. Equal values may be shown once. Records with an inconclusive call do not appear. Calls of active or inactive are those of the source.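 How the source made its calls: active means valid dose-response fit whose half-maximal growth-inhibiting concentration is at or below a set limit above the top tested dose; inconclusive means flat fit with effect between 30 and 70%, or poor fit; inactive means half-maximal concentration above a set limit.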

How the values were obtained:
[1] = tested on: Clostridioides difficile clinical isolate growth, OD600, 24 h; assay: antibacterial activity against Clostridioides difficile – 10-point retest, dose response (AID 1259246)
[2] = as above; conditions: Clostridioides difficile clinical isolate growth, OD600, 24 h

Row | SMILES | activity change, negative = inhibition ([2]; at 120 µM (top of the series)) | other results
1 | CO[C@H](CN(C)C(=O)C1CCOCC1)[C@H](C)CN(C(=O)Nc1ccc(C(F)(F)F)cc1)[C@@H](C)CO |  | IC50 [1]: 21.4 µM
2 | C[C@@H]1CN([C@H](C)CO)S(=O)(=O)c2ccc(/C=C/c3ccccc3)cc2O[C@@H]1CN(C)Cc1ccc(C(=O)O)cc1 |  | IC50 [1]: 153 µM
3 | CCS(=O)(=O)N1[C@H](CO)[C@H](c2ccc(C#CCC3CCCC3)cc2)[C@@H]1C#N |  | IC50 [1]: 80.2 µM
4 | C[C@@H]1CN([C@@H](C)CO)C(=O)c2cccc(NC(=O)Nc3ccc(C(F)(F)F)cc3)c2O[C@@H]1CN(C)C(=O)Nc1ccc(F)cc1 |  | IC50 [1]: 13.9 µM and > 240 µM (inactive)
5 | C[C@@H]1CN([C@@H](C)CO)C(=O)c2cccc(NC(=O)Nc3ccc(F)cc3)c2O[C@@H]1CN(C)Cc1ccc(C(F)(F)F)cc1 |  | IC50 [1]: 13 µM and 3.27 µM and 6.22 µM
6 | COc1ccc(S(=O)(=O)Nc2cccc3c2O[C@H](CN(C)Cc2ccc(Oc4ccccc4)cc2)[C@H](C)CN([C@@H](C)CO)C3=O)cc1 |  | IC50 [1]: 9.4 µM
7 | C[C@@H]1CN([C@@H](C)CO)C(=O)c2cccc(NS(=O)(=O)c3ccccc3)c2O[C@@H]1CN(C)Cc1ccc(-c2ccccc2)cc1 |  | IC50 [1]: 62.5 µM
8 | CO[C@H](CN(C)C(=O)C1CCOCC1)[C@@H](C)CN(C(=O)Nc1ccc(C(F)(F)F)cc1)[C@H](C)CO |  | IC50 [1]: 14.5 µM
9 | C[C@@H]1CN([C@H](C)CO)S(=O)(=O)c2ccc(C#CCC3CCCC3)cc2O[C@H]1CN(C)Cc1ccc(C(=O)O)cc1 |  | IC50 [1]: 76.2 µM
10 | CO[C@H]1CN(C)C(=O)c2cc(NC(=O)Nc3cc(Cl)cc(Cl)c3)ccc2OC[C@H](C)NC[C@H]1C |  | IC50 [1]: 41.2 µM and 8.16 µM
11 | CNC[C@@H]1Oc2cc(C#CCC(C)C)ccc2S(=O)(=O)N([C@@H](C)CO)C[C@H]1C | 21.5% (inactive) | 
12 | C[C@@H]1CN([C@H](C)CO)C(=O)c2cc(NC(=O)Nc3ccc(F)cc3)ccc2O[C@@H](C)CCCCO[C@H]1CN(C)C(=O)c1ccccc1 | 41% (inactive) | 
13 | C[C@H]1CN([C@@H](C)CO)S(=O)(=O)c2ccc(C#CC3CCCC3)cc2O[C@@H]1CN(C)Cc1cccnc1 |  | activity change, negative = inhibition ([2]; at 60 µM (top of the series)): 7.15% (inactive)
14 | COc1ccc(NC(=O)Nc2cccc3c2O[C@@H](CN(C)Cc2ccc(Oc4ccccc4)cc2)[C@H](C)CN([C@@H](C)CO)C3=O)cc1 | 18.2% (inactive) | 
15 | CO[C@H]1CN(C)C(=O)c2cc(NC(=O)c3nc4ccccc4s3)ccc2OC[C@@H](C)N(Cc2ccncc2)C[C@@H]1C | 5.15% (inactive) | 
16 | CO[C@H]1CN(C)C(=O)c2cc(NC(=O)c3ccc(-c4ccccc4)cc3)ccc2OC[C@H](C)NC[C@H]1C | 25.8% (inactive) | activity change, negative = inhibition ([2]; at 135 µM (top of the series)): 102% (inactive)
17 | C[C@@H]1CN([C@H](C)CO)C(=O)c2cccc(NC(=O)Nc3ccc(C(F)(F)F)cc3)c2O[C@H]1CN(C)Cc1ccc(-c2ccccc2)cc1 | 8.44% (inactive) | 
18 | CN(C)CC(=O)N1[C@H](C#N)[C@H](c2ccc(C#CC3CCCCC3)cc2)[C@H]1CO |  | activity change, negative = inhibition ([2]; at 60 µM (top of the series)): 6.71% (inactive)
19 | COc1ccccc1CNC(=O)C[C@H]1C[C@@H]2c3cc(NC(=O)NC4CCCC4)ccc3O[C@@H]2[C@H](CO)O1 |  | activity change, negative = inhibition ([2]; at 135 µM (top of the series)): 4.13% (inactive)
20 | C/C=C/c1ccc2c(c1)O[C@H](CN(C)Cc1ccc(F)cc1)[C@H](C)CN([C@H](C)CO)S2(=O)=O | 11.8% (inactive) | 

Row | SMILES | activity change, negative = inhibition ([2]; at 120 µM (top of the series)) | other results
21 | CNC[C@H]1Oc2cc(Br)ccc2S(=O)(=O)N([C@H](C)CO)C[C@@H]1C | 6.99% (inactive) | 
22 | C[C@H]1CN([C@@H](C)CO)C(=O)c2cccc(NC(=O)Nc3ccc(C(F)(F)F)cc3)c2O[C@@H]1CN(C)Cc1ccc(-c2ccccc2)cc1 | 31.9% (inactive) | 
23 | O=C(C[C@H]1C[C@@H]2c3cc(NC(=O)C4CCC4)ccc3O[C@@H]2[C@@H](CO)O1)NCc1ccncc1 |  | activity change, negative = inhibition ([2]; at 60 µM (top of the series)): -0.413% (inactive)
24 | C[C@H]1CN([C@@H](C)CO)C(=O)Cc2cc(NC(=O)CCCN(C)C)ccc2O[C@H]1CN(C)Cc1ccc(Oc2ccccc2)cc1 |  | activity change, negative = inhibition ([2]; at 135 µM (top of the series)): 10.5% (inactive)
25 | C[C@H]1CN([C@@H](C)CO)C(=O)c2cccc(NC(=O)Nc3ccc(C(F)(F)F)cc3)c2O[C@H]1CN(C)S(=O)(=O)c1ccc(Cl)cc1 | 51.5% (inactive) | activity change, negative = inhibition ([2]; at 60 µM (top of the series)): 28.2% (inactive)
26 | C[C@@H]1CN([C@@H](C)CO)S(=O)(=O)c2ccc(/C=C/c3ccccc3)cc2O[C@H]1CN(C)C(=O)c1ccccc1 | 18.9% (inactive) | 
27 | COc1ccccc1CNC(=O)C[C@H]1C[C@H]2c3cc(NC(=O)NC4CCCC4)ccc3O[C@H]2[C@@H](CO)O1 |  | activity change, negative = inhibition ([2]; at 135 µM (top of the series)): 4.17% (inactive)
28 | O=C(N[C@H]1CC[C@H](CCNS(=O)(=O)Cc2ccccc2)O[C@H]1CO)c1cnccn1 | -2.56% (inactive) | 
29 | CC(C)CC#Cc1ccc2c(c1)O[C@H](CN(C)Cc1ccc3c(c1)OCO3)[C@H](C)CN([C@@H](C)CO)S2(=O)=O | 26.5% (inactive) | 
30 | CO[C@@H]1CN(C)C(=O)c2cc(NC(=O)c3ccc(-c4ccccc4)cc3)ccc2OC[C@@H](C)NC[C@@H]1C | 6.12% (inactive) | 
31 | C[C@@H]1CN([C@H](C)CO)C(=O)Cc2cc(NC(=O)C3CC3)ccc2O[C@H]1CN(C)C |  | activity change, negative = inhibition ([2]; at 135 µM (top of the series)): 32.9% (inactive)
32 | CC(C)CC#Cc1ccc2c(c1)O[C@H](CN(C)Cc1ccccc1F)[C@H](C)CN([C@@H](C)CO)S2(=O)=O | 26.2% (inactive) | 
33 | C[C@@H]1CN([C@H](C)CO)C(=O)c2cc(NC(=O)Nc3ccc4c(c3)OCO4)ccc2O[C@@H](C)CCCCO[C@H]1CN(C)S(=O)(=O)c1ccc(F)cc1 | 13.1% (inactive) | 
34 | CO[C@H]1CN(C)C(=O)c2cc(NC(=O)c3nc4ccccc4s3)ccc2OC[C@@H](C)N(Cc2ccncc2)C[C@H]1C | 5.99% (inactive) | 
35 | C[C@@H]1CN([C@H](C)CO)C(=O)Cc2cc(NC(=O)CCC(F)(F)F)ccc2O[C@H]1CN(C)Cc1ccc(Oc2ccccc2)cc1 |  | activity change, negative = inhibition ([2]; at 135 µM (top of the series)): 25.5% (inactive)
36 | C[C@@H]1CCCCO[C@H](CN(C)C)[C@H](C)CN([C@H](C)CO)C(=O)c2cc(NC(=O)c3ccncc3)ccc2O1 | 45.3% (inactive) | 
37 | CO[C@H]1CN(C)C(=O)c2ccc(NC(=O)c3ccc(-c4ccccc4)cc3)cc2OC[C@H](C)NC[C@H]1C | 4.8% (inactive) | 
38 | O=C(C[C@@H]1C[C@@H]2c3cc(NC(=O)C4CCC4)ccc3O[C@@H]2[C@@H](CO)O1)NCc1ccc(Cl)cc1 | -5.46% (inactive) | 
39 | C[C@H](CO)N1C[C@H](C)[C@@H](CN(C)S(=O)(=O)c2ccc(F)cc2)OCCCC[C@H](C)Oc2ccc(NC(=O)Nc3cccc4ccccc34)cc2C1=O | 16.3% (inactive) | 
40 | C[C@@H]1CN([C@@H](C)CO)C(=O)Cc2cc(N(C)C)ccc2O[C@@H]1CN(C)Cc1ccc(-c2ccccc2)cc1 | 30.2% (inactive) | 

Row | SMILES | activity change, negative = inhibition ([2]; at 120 µM (top of the series)) | other results
41 | C[C@H](CO)N1C[C@H](C)[C@H](CN(C)S(=O)(=O)c2ccc(F)cc2)OCCCC[C@H](C)Oc2ccc(NC(=O)Nc3cccc4ccccc34)cc2C1=O | 34.7% (inactive) | 
42 | C[C@H](CO)N1C[C@H](C)[C@@H](CN(C)C(=O)NC2CCCCC2)Oc2c(NC(=O)Nc3ccccc3)cccc2C1=O | 12.2% (inactive) | 
43 | CNC[C@H]1Oc2ccc(NC(=O)C3CC3)cc2CC(=O)N([C@@H](C)CO)C[C@H]1C |  | activity change, negative = inhibition ([2]; at 135 µM (top of the series)): -0.275% (inactive)
44 | C[C@@H]1CN([C@H](C)CO)C(=O)c2cc(NS(=O)(=O)c3ccccc3)ccc2O[C@@H](C)CCCCO[C@H]1CN(C)S(=O)(=O)c1ccc(F)cc1 | 12.7% (inactive) | 
45 | C[C@@H]1CN([C@H](C)CO)C(=O)c2cccc(NC(=O)Nc3ccccc3)c2O[C@H]1CN(C)Cc1ccc(Oc2ccccc2)cc1 | 17.8% (inactive) | 
46 | CO[C@H]1CN(C)C(=O)c2cc(NC(=O)c3nc4ccccc4s3)ccc2OC[C@H](C)N(Cc2ccncc2)C[C@H]1C |  | activity change, negative = inhibition ([2]; at 135 µM (top of the series)): 20.9% (inactive)
47 | Cc1ccc(S(=O)(=O)N[C@H]2CC[C@H](CCNC(=O)c3ccc4c(c3)OCO4)O[C@H]2CO)cc1 | -3.6% (inactive) | 
48 | C[C@H]1CN([C@@H](C)CO)C(=O)c2cccc(NC(=O)Nc3ccc4c(c3)OCO4)c2O[C@H]1CN(C)Cc1ccc(-c2ccccc2)cc1 |  | activity change, negative = inhibition ([2]; at 135 µM (top of the series)): 24.8% (inactive)
49 | C[C@@H]1CN([C@H](C)CO)C(=O)Cc2cc(NS(=O)(=O)c3ccccc3)ccc2O[C@@H]1CN(C)Cc1ccc(-c2ccccc2)cc1 |  | activity change, negative = inhibition ([2]; at 135 µM (top of the series)): 31.9% (inactive)
50 | CO[C@@H]1CN(C)C(=O)c2ccc(NC(=O)c3nc4ccccc4s3)cc2OC[C@@H](C)N(Cc2ccncc2)C[C@@H]1C | 14.1% (inactive) | 
51 | C[C@H](CO)N1C[C@H](C)[C@H](CN(C)Cc2ccc(Oc3ccccc3)cc2)Oc2ccc(NC(=O)C3CC3)cc2CC1=O | 12.9% (inactive) | 
52 | COc1ccccc1CNC(=O)C[C@H]1C[C@@H]2c3cc(NC(=O)NC4CCCC4)ccc3O[C@@H]2[C@@H](CO)O1 | -0.476% (inactive) | 
53 | COc1ccc(CN(C)C[C@H]2Oc3ccc(NC(=O)C4CC4)cc3CC(=O)N([C@@H](C)CO)C[C@H]2C)cc1 | -3.18% (inactive) | 
54 | C[C@@H]1CN([C@@H](C)CO)C(=O)Cc2cc(NS(C)(=O)=O)ccc2O[C@@H]1CN(C)Cc1ccc(Oc2ccccc2)cc1 |  | activity change, negative = inhibition ([2]; at 135 µM (top of the series)): 7.12% (inactive)
55 | O=C(C[C@H]1C[C@H]2c3cc(NC(=O)Nc4ccc(F)cc4)ccc3O[C@H]2[C@H](CO)O1)NC1CCCCC1 | 2.71% (inactive) | 
56 | C[C@H](CO)N1C[C@H](C)[C@@H](CN(C)C(=O)Nc2ccc(C(F)(F)F)cc2)Oc2c(NC(=O)Nc3cccc4ccccc34)cccc2C1=O | 36.8% (inactive) | 
57 | C[C@@H]1CN([C@H](C)CO)C(=O)c2cc(NC(=O)Nc3cccc4ccccc34)ccc2O[C@@H](C)CCCCO[C@H]1CN(C)S(=O)(=O)c1cn(C)cn1 |  | activity change, negative = inhibition ([2]; at 135 µM (top of the series)): 33.1% (inactive)
58 | C[C@@H]1CN([C@H](C)CO)S(=O)(=O)c2ccc(Br)cc2O[C@H]1CN(C)Cc1cccnc1 | 0.001% (inactive) | 
59 | C[C@H](CO)N1C[C@H](C)[C@H](CN(C)Cc2cccnc2)Oc2cc(C#CC3CCCCC3)ccc2S1(=O)=O | 24.1% (inactive) | 
